For one experiment, the target named is T1, IDH1 R132H (Homo sapiens, UniProt O75874, R132H).
T1 construct: 6xHis
As to the kind of experiment: Biochemical assay for IDH inhibition (NADPH fluorescence), mutant IDH1 R132H. To be noted: 50 nM IDH1-R132H, 1 hour pre-incubation, in triplet. An outline of the steps:
(§1)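 The read-out was the linear-phase loss of NADPH fluorescence (340/460 nm) over 15 min, background-subtracted and normalized to DMSO wells, giving triplicate IC50 values. Beforehand, R132H (50 nM) or R132C (25 nM) was exposed to compound for 1 h at room temperature with 1.33 mM α-KG at pH 7.5, and the reaction was triggered by adding an 80 μM NADPH solution.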

The next experiment has as its target T2, IDH1 R132C (Homo sapiens, UniProt O75874, R132C).
T2 construct: 6xHis
Kind of experiment: Biochemical assay for IDH inhibition (NADPH fluorescence), mutant IDH1 R132C. To be noted: 25 nM IDH1-R132C, 1 hour pre-incubation, in triplet. An outline of the steps:
as §1

The target in experiment [1] is T3, IDH (endogenous IDH1 R132C) in HT1080 cell (Homo sapiens, UniProt O75874, R132C).
T3 construct: which harbor endogenous heterozygous IDH1 R132C and R132H mutation respectively and accumulate D-2-HG
T3 sequence (O75874 2-414 R132C): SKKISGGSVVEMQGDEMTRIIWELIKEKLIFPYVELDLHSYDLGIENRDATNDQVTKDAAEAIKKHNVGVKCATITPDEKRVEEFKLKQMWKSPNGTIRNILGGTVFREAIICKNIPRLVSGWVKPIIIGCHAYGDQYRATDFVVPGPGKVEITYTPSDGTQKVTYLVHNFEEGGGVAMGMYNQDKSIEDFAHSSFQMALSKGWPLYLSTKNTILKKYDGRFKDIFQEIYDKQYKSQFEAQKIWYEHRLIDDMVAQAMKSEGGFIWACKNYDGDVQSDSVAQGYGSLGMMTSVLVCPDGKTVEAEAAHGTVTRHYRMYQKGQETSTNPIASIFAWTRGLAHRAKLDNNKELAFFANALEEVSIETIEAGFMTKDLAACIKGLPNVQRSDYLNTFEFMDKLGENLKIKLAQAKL
Kind of experiment: Cell-based assay for IDH inhibition (decrease of D-2-HG) in HT1080 cells. To be noted: human fibrosarcoma cell line HT1080, 16 hours treatment, D-2-HG by LC-MS, in triplet. The essentials: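 LC-MS/MS quantification of D-2-HG, normalized to glutamate, follows a 16 h compound exposure of IDH1 R132C HT1080 cells in DMEM with 10% FBS. Extraction uses pre-chilled 40% methanol/40% acetonitrile in water. Triplicate determinations; IC50 from D-2-HG levels relative to DMSO-treated cells.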

T1 sequence (O75874 whole entry R132H): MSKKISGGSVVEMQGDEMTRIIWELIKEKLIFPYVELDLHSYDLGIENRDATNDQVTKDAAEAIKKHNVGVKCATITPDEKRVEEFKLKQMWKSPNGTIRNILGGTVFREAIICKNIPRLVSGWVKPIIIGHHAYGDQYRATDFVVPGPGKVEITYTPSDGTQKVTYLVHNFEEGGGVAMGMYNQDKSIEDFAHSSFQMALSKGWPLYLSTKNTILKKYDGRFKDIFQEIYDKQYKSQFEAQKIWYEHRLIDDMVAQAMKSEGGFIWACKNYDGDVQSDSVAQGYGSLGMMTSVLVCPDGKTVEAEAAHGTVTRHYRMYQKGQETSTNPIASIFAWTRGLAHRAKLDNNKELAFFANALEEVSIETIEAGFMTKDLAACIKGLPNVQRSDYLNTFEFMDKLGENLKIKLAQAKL
T2 sequence (O75874 whole entry R132C): as the sequence (O75874 whole entry R132H) above, with H132C counted along it

In the case of `CCN1Cc2c(ccnc2N[C@@H](C)c2cc(F)c(-c3ccnc(-c4cncc(Cl)c4)c3)cc2F)C1=O` [Compound 100, (S)-4-((1-(4-(5′-chloro-[2,3′-bipyridin]-4-yl)-2,5-difluorophenyl)ethyl)amino)-2-ethyl-2,3-dihydro-1H-pyrrolo[3,4-c]pyridin-1-one], the IC50 (commonly the concentration needed to halve the response being measured) at IDH1 R132H fell in the range of 100 to 500 nM; at IDH1 R132C, 500 to 1000 nM; in experiment [1], 100 to 500 nM.
On to `CCN1Cc2c(ccnc2N[C@@H](C)c2cc(F)c(-c3ccnc(C4CCCC4)c3)cc2F)C1=O` [Compound 101, (S)-4-((1-(4-(2-cyclopentylpyridin-4-yl)-2,5-difluorophenyl)ethyl)amino)-2-ethyl-2,3-dihydro-1H-pyrrolo[3,4-c]pyridin-1-one], for which the half-inhibitory concentration (IC50) at IDH1 R132H is less than 100 nM; on IDH1 R132C it was 100 to 500 nM; in experiment [1], 100 to 500 nM.
For `CCN1Cc2c(ccnc2N[C@@H](C)c2cc(F)c(-c3ccnc(C(C)(C)F)c3)cc2F)C1=O` [Compound 102, 4-[[(1S)-1-[2,5-difluoro-4-[2-(1-fluoro-1-methyl-ethyl)-4-pyridyl]phenyl]ethyl]amino]-2-ethyl-3H-pyrrolo[3,4-c]pyridin-1-one], the IC50 on IDH1 R132H was less than 100 nM; on IDH1 R132C it was 100 to 500 nM; in experiment [1], 100 to 500 nM.
Turning to `CCN1Cc2c(ccnc2N[C@@H](C)c2cc(F)c(-c3ccnc(C(C)(C)O)c3)cc2F)C1=O` [Compound 103, (S)-4-((1-(2,5-difluoro-4-(2-(2-hydroxypropan-2-yl)pyridin-4-yl)phenyl)ethyl)amino)-2-ethyl-2,3-dihydro-1H-pyrrolo[3,4-c]pyridin-1-one], the IC50 (on IDH1 R132H; at IDH1 R132C; in experiment [1]) was greater than 1000 nM throughout.
As for `CCN1Cc2c(ccnc2N[C@@H](C)c2cc(F)c(-c3cc(C(C)(C)C)ncc3F)cc2F)C1=O` [Compound 104, (S)-4-((1-(4-(2-(tert-butyl)-5-fluoropyridin-4-yl)-2,5-difluorophenyl)ethyl)amino)-2-ethyl-2,3-dihydro-1H-pyrrolo[3,4-c]pyridin-1-one], the IC50 (on IDH1 R132H; on IDH1 R132C; in experiment [1]) was less than 100 nM each time.
For the molecule `CCN1Cc2c(ccnc2N[C@@H](C)c2cc(F)c(-c3ccnc(C(C)(C)C(F)(F)F)c3)cc2F)C1=O` [Compound 105, (S)-4-((1-(2,5-difluoro-4-(2-(1,1,1-trifluoro-2-methylpropan-2-yl)pyridin-4-yl)phenyl)ethyl)amino)-2-ethyl-2,3-dihydro-1H-pyrrolo[3,4-c]pyridin-1-one], the IC50 (on IDH1 R132H; at IDH1 R132C; in experiment [1]) was less than 100 nM each time.
For the molecule `CCN1Cc2c(ccnc2N[C@@H](C)c2cc(F)c(-c3ccnc(C(C)(F)F)c3)cc2F)C1=O` [Compound 106, (S)-4-((1-(4-(2-(1,1-difluoroethyl)pyridin-4-yl)-2,5-difluorophenyl)ethyl)amino)-2-ethyl-2,3-dihydro-1H-pyrrolo[3,4-c]pyridin-1-one], the 50% inhibitory concentration (IC50) (at IDH1 R132H; on IDH1 R132C; in experiment [1]) was 100 to 500 nM in each case.
Take `CCN1Cc2c(ccnc2N[C@@H](C)c2cc(F)c(-c3ccnc(C(F)(F)C(F)(F)F)c3)cc2F)C1=O` [Compound 107, (S)-4-((1-(2,5-difluoro-4-(2-(perfluoroethyl)pyridin-4-yl)phenyl)ethyl)amino)-2-ethyl-2,3-dihydro-1H-pyrrolo[3,4-c]pyridin-1-one]: the IC50 at IDH1 R132H was less than 100 nM; at IDH1 R132C, less than 100 nM; in experiment [1], 100 to 500 nM.
`CCN1Cc2c(ccnc2N[C@@H](C)c2cc(F)c(-c3cc(C(C)(C)C)ccn3)cc2F)C1=O` [Compound 108, (S)-4-((1-(4-(4-(tert-butyl)pyridin-2-yl)-2,5-difluorophenyl)ethyl)amino)-2-ethyl-2,3-dihydro-1H-pyrrolo[3,4-c]pyridin-1-one]: the concentration for half-maximal inhibition (IC50) (at IDH1 R132H; at IDH1 R132C; in experiment [1]) was less than 100 nM in each case.
On to `CCN1Cc2c(ccnc2N[C@@H](C)c2cc(F)c(-c3cncc(C(C)(C)C)c3)cc2F)C1=O` [Compound 109, (S)-4-((1-(4-(5-(tert-butyl)pyridin-3-yl)-2,5-difluorophenyl)ethyl)amino)-2-ethyl-2,3-dihydro-1H-pyrrolo[3,4-c]pyridin-1-one], for which the 50% inhibitory concentration (IC50) (at IDH1 R132H; at IDH1 R132C; in experiment [1]) was less than 100 nM throughout.
`CCN1Cc2c(ccnc2N[C@@H](C)c2cc(F)c(-c3cc(C(C)(C)C)ncn3)cc2F)C1=O` [Compound 110, (S)-4-((1-(4-(6-(tert-butyl)pyrimidin-4-yl)-2,5-difluorophenyl)ethyl)amino)-2-ethyl-2,3-dihydro-1H-pyrrolo[3,4-c]pyridin-1-one]: the half-inhibitory concentration (IC50) (at IDH1 R132H; on IDH1 R132C; in experiment [1]) was less than 100 nM throughout.
Take `CCN1Cc2c(ccnc2N[C@@H](C)c2cc(F)c(-c3ccnc(C(C)(C)C)n3)cc2F)C1=O` [Compound 111, (S)-4-((1-(4-(2-(tert-butyl)pyrimidin-4-yl)-2,5-difluorophenyl)ethyl)amino)-2-ethyl-2,3-dihydro-1H-pyrrolo[3,4-c]pyridin-1-one]: the IC50 was less than 100 nM at IDH1 R132H, 100 to 500 nM on IDH1 R132C and 100 to 500 nM in experiment [1].
On to `CCN1Cc2c(ccnc2N[C@@H](C)c2cc(F)c(-c3cc(C(C)(C)F)ccn3)cc2F)C1=O` [Compound 112, (S)-4-((1-(2,5-difluoro-4-(4-(2-fluoropropan-2-yl)pyridin-2-yl)phenyl)ethyl)amino)-2-ethyl-2,3-dihydro-1H-pyrrolo[3,4-c]pyridin-1-one], for which the IC50 (on IDH1 R132H; on IDH1 R132C; in experiment [1]) was less than 100 nM throughout.
Consider `CCN1Cc2c(ccnc2N[C@@H](C)c2cc(F)c(-c3cc(C(C)(C)F)cc(C)n3)cc2F)C1=O` [Compound 113, (S)-4-((1-(2,5-difluoro-4-(4-(2-fluoropropan-2-yl)-6-methylpyridin-2-yl)phenyl)ethyl)amino)-2-ethyl-2,3-dihydro-1H-pyrrolo[3,4-c]pyridin-1-one], for which the half-maximal inhibitory concentration (IC50) (on IDH1 R132H; at IDH1 R132C; in experiment [1]) was less than 100 nM throughout.
As for `CCN1Cc2c(ccnc2N[C@@H](C)c2cc(F)c(-c3cc(C#N)ccn3)cc2F)C1=O` [Compound 114, (S)-2-(4-(1-((2-ethyl-1-oxo-2,3-dihydro-1H-pyrrolo[3,4-c]pyridin-4-yl)amino)ethyl)-2,5-difluorophenyl)isonicotinonitrile], the IC50 at IDH1 R132H was greater than 1000 nM; at IDH1 R132C, greater than 1000 nM; in experiment [1] it was 500 to 1000 nM.
`CCN1Cc2c(ccnc2N[C@@H](C)c2cc(F)c(-c3cc(C(F)(F)F)ccn3)cc2F)C1=O` [Compound 115, (S)-4-((1-(2,5-difluoro-4-(4-(trifluoromethyl)pyridin-2-yl)phenyl)ethyl)amino)-2-ethyl-2,3-dihydro-1H-pyrrolo[3,4-c]pyridin-1-one]: the IC50 at IDH1 R132H was less than 100 nM; on IDH1 R132C it was 100 to 500 nM; in experiment [1], 100 to 500 nM.
`CCN1Cc2c(ccnc2N[C@@H](C)c2cc(F)c(-c3cc(C(C)(C)C)ncc3OC)cc2F)C1=O` [Compound 116, (S)-4-((1-(4-(2-(tert-butyl)-5-methoxypyridin-4-yl)-2,5-difluorophenyl)ethyl)amino)-2-ethyl-2,3-dihydro-1H-pyrrolo[3,4-c]pyridin-1-one]: the IC50 (at IDH1 R132H; on IDH1 R132C; in experiment [1]) was less than 100 nM each time.
For `CCN1Cc2c(ccnc2N[C@@H](C)c2cc(F)c(-c3nc(C(C)(C)C)ccc3OC)cc2F)C1=O` [Compound 117, (S)-4-((1-(4-(6-(tert-butyl)-3-methoxypyridin-2-yl)-2,5-difluorophenyl)ethyl)amino)-2-ethyl-2,3-dihydro-1H-pyrrolo[3,4-c]pyridin-1-one], the IC50 (at IDH1 R132H; at IDH1 R132C; in experiment [1]) was less than 100 nM each time.
For the molecule `CCN1Cc2c(ccnc2N[C@@H](C)c2cc(F)c(-c3cc(C(C)(C)F)cc(CF)n3)cc2F)C1=O` [Compound 118, (S)-4-((1-(2,5-difluoro-4-(6-(fluoromethyl)-4-(2-fluoropropan-2-yl)pyridin-2-yl)phenyl)ethyl)amino)-2-ethyl-2,3-dihydro-1H-pyrrolo[3,4-c]pyridin-1-one], the half-maximal inhibitory concentration (IC50) (at IDH1 R132H; on IDH1 R132C; in experiment [1]) was less than 100 nM in each case.
As for `CCN1Cc2c(ccnc2N[C@@H](C)c2cc(F)c(-c3cc(C(C)(C)F)cc(F)n3)cc2F)C1=O` [Compound 119, (S)-4-((1-(2,5-difluoro-4-(6-fluoro-4-(2-fluoropropan-2-yl)pyridin-2-yl)phenyl)ethyl)amino)-2-ethyl-2,3-dihydro-1H-pyrrolo[3,4-c]pyridin-1-one], the IC50 (at IDH1 R132H; on IDH1 R132C; in experiment [1]) was less than 100 nM in each case.
Regarding `CCN1Cc2c(ccnc2N[C@@H](C)c2cc(F)c(-c3cc(C(C)(C)F)cc(OC)n3)cc2F)C1=O` [Compound 120, (S)-4-((1-(2,5-difluoro-4-(4-(2-fluoropropan-2-yl)-6-methoxypyridin-2-yl)phenyl)ethyl)amino)-2-ethyl-2,3-dihydro-1H-pyrrolo[3,4-c]pyridin-1-one], the IC50 (at IDH1 R132H; at IDH1 R132C; in experiment [1]) was less than 100 nM throughout.

The values above are taken from patent publication US12441725B2, “ISO-citrate dehydrogenase (IDH) inhibitor” (ZHEJIANG METON PHARMACEUTICAL CO., LTD, priority 2019, dated 2025).
